Results published in the NIST ThermoML archive (doi:10.1016/j.jct.2018.11.005).

Conditions: Liquid; for mass density: Vibrating tube method; for speed of sound: Frequency=5 MHz, Single path-length method

CCC(=O)[O-].CC[NH2+]CCO [N-ethyl-2-hydroxyethylammonium propionate]
Conditions | mass density [kg/m3] | speed of sound [m/s]
298.14 K, 15000 kPa | 1058.3 | –
298.14 K, 30000 kPa | 1063.5 | –
298.15 K, 10000 kPa | 1057 | –
298.15 K, 25000 kPa | 1061.8 | –
298.15 K, 35000 kPa | 1064.6 | –
298.16 K, 100 kPa | 1051.9 | –
298.16 K, 20000 kPa | 1059.9 | –
303.08 K, 35000 kPa | 1060.7 | –
303.12 K, 30000 kPa | 1059.2 | –
303.14 K, 20000 kPa | 1055.6 | –
303.14 K, 25000 kPa | 1057.4 | –
303.15 K, 100 kPa | – | 1566.6
303.15 K, 1000 kPa | – | 1570.6
303.15 K, 2000 kPa | – | 1574.6
303.15 K, 3000 kPa | – | 1578.7
303.15 K, 4000 kPa | – | 1582.8
303.15 K, 5000 kPa | – | 1586.9
303.15 K, 6000 kPa | – | 1589.6
303.15 K, 7000 kPa | – | 1592.4
303.15 K, 8000 kPa | – | 1595.1
303.15 K, 9000 kPa | – | 1599.3
303.15 K, 10000 kPa | 1052.1 | 1603.5
303.15 K, 11000 kPa | – | 1607.7
303.15 K, 12000 kPa | – | 1611.9
303.15 K, 13000 kPa | – | 1616.1
303.15 K, 14000 kPa | – | 1620.3
303.15 K, 15000 kPa | 1053.4 | 1623.2
303.15 K, 16000 kPa | – | 1627.4
303.15 K, 17000 kPa | – | 1631.7
303.15 K, 18000 kPa | – | 1634.6
303.15 K, 19000 kPa | – | 1637.5
303.15 K, 20000 kPa | – | 1640.4
303.16 K, 100 kPa | 1046.7 | –
313.07 K, 25000 kPa | 1047.8 | –
313.07 K, 30000 kPa | 1049.6 | –
313.07 K, 35000 kPa | 1051.4 | –
313.09 K, 10000 kPa | 1041.8 | –
313.09 K, 20000 kPa | 1045.6 | –
313.11 K, 15000 kPa | 1043.2 | –
313.14 K, 100 kPa | 1035.6 | –
313.15 K, 100 kPa | – | 1535.6
313.15 K, 1000 kPa | – | 1539.4
313.15 K, 2000 kPa | – | 1543.3
313.15 K, 3000 kPa | – | 1547.2
313.15 K, 4000 kPa | – | 1552.4
313.15 K, 5000 kPa | – | 1555
313.15 K, 6000 kPa | – | 1560.3
313.15 K, 7000 kPa | – | 1564.2
313.15 K, 8000 kPa | – | 1568.2
313.15 K, 9000 kPa | – | 1572.2
313.15 K, 10000 kPa | – | 1576.2
313.15 K, 11000 kPa | – | 1578.9
313.15 K, 12000 kPa | – | 1583
313.15 K, 13000 kPa | – | 1587.1
313.15 K, 14000 kPa | – | 1591.1
313.15 K, 15000 kPa | – | 1595.3
313.15 K, 16000 kPa | – | 1599.4
313.15 K, 17000 kPa | – | 1603.5
313.15 K, 18000 kPa | – | 1607.7
313.15 K, 19000 kPa | – | 1610.5
313.15 K, 20000 kPa | – | 1614.7
323.15 K, 100 kPa | 1024.4 | 1504.9
323.15 K, 1000 kPa | – | 1508.6
323.15 K, 2000 kPa | – | 1512.4
323.15 K, 3000 kPa | – | 1517.3
323.15 K, 4000 kPa | – | 1522.4
323.15 K, 5000 kPa | – | 1527.4
323.15 K, 6000 kPa | – | 1531.2
323.15 K, 7000 kPa | – | 1535
323.15 K, 8000 kPa | – | 1538.9
323.15 K, 9000 kPa | – | 1542.8
323.15 K, 10000 kPa | – | 1546.6
323.15 K, 11000 kPa | – | 1550.5
323.15 K, 12000 kPa | – | 1555.7
323.15 K, 13000 kPa | – | 1559.7
323.15 K, 14000 kPa | – | 1563.6
323.15 K, 15000 kPa | 1032.6 | 1566.3
323.15 K, 16000 kPa | – | 1570.3
323.15 K, 17000 kPa | – | 1572.9
323.15 K, 18000 kPa | – | 1575.6
323.15 K, 19000 kPa | – | 1579.6
323.15 K, 20000 kPa | 1035.2 | 1583.7
323.15 K, 25000 kPa | 1037.2 | –
323.15 K, 30000 kPa | 1039.3 | –
323.15 K, 35000 kPa | 1041.5 | –
323.16 K, 10000 kPa | 1030.5 | –
333.14 K, 10000 kPa | 1018 | –
333.15 K, 100 kPa | – | 1485.5
333.15 K, 1000 kPa | – | 1489.2
333.15 K, 2000 kPa | – | 1494.2
333.15 K, 3000 kPa | – | 1497.9
333.15 K, 4000 kPa | – | 1500.5
333.15 K, 5000 kPa | – | 1503
333.15 K, 6000 kPa | – | 1508
333.15 K, 7000 kPa | – | 1511.8
333.15 K, 8000 kPa | – | 1514.4
333.15 K, 9000 kPa | – | 1519.4
333.15 K, 10000 kPa | – | 1523.2
333.15 K, 11000 kPa | – | 1525.8
333.15 K, 12000 kPa | – | 1530.9
333.15 K, 13000 kPa | – | 1533.5
333.15 K, 14000 kPa | – | 1536.1
333.15 K, 15000 kPa | 1021 | 1540
333.15 K, 16000 kPa | – | 1542.6
333.15 K, 17000 kPa | – | 1546.5
333.15 K, 18000 kPa | – | 1550.4
333.15 K, 19000 kPa | – | 1553
333.15 K, 20000 kPa | – | 1555.6
333.15 K, 30000 kPa | 1028.8 | –
333.15 K, 35000 kPa | 1031.3 | –
333.16 K, 100 kPa | 1011.9 | –
333.16 K, 20000 kPa | 1023.7 | –
333.16 K, 25000 kPa | 1026.2 | –
343.14 K, 15000 kPa | 1008.7 | –
343.14 K, 25000 kPa | 1014.3 | –
343.15 K, 100 kPa | – | 1450.5
343.15 K, 1000 kPa | – | 1454.2
343.15 K, 2000 kPa | – | 1458
343.15 K, 3000 kPa | – | 1461.8
343.15 K, 4000 kPa | – | 1466.7
343.15 K, 5000 kPa | – | 1470.5
343.15 K, 6000 kPa | – | 1474.3
343.15 K, 7000 kPa | – | 1478.1
343.15 K, 8000 kPa | – | 1481.9
343.15 K, 9000 kPa | – | 1485.7
343.15 K, 10000 kPa | – | 1489.5
343.15 K, 11000 kPa | – | 1493.3
343.15 K, 12000 kPa | – | 1497.2
343.15 K, 13000 kPa | – | 1501
343.15 K, 14000 kPa | – | 1504.8
343.15 K, 15000 kPa | – | 1507.4
343.15 K, 16000 kPa | – | 1511.2
343.15 K, 17000 kPa | – | 1516.3
343.15 K, 18000 kPa | – | 1520.1
343.15 K, 19000 kPa | – | 1524
343.15 K, 20000 kPa | – | 1526.6
343.17 K, 100 kPa | 998.8 | –
343.17 K, 10000 kPa | 1004.6 | –
343.17 K, 30000 kPa | 1017.4 | –
343.19 K, 35000 kPa | 1020.1 | –
343.21 K, 20000 kPa | 1011.2 | –
353.15 K, 100 kPa | – | 1416
353.15 K, 1000 kPa | – | 1419.9
353.15 K, 2000 kPa | – | 1423.8
353.15 K, 3000 kPa | – | 1428.9
353.15 K, 4000 kPa | – | 1434
353.15 K, 5000 kPa | – | 1438
353.15 K, 6000 kPa | – | 1443.1
353.15 K, 7000 kPa | – | 1447
353.15 K, 8000 kPa | – | 1451
353.15 K, 9000 kPa | – | 1456.1
353.15 K, 10000 kPa | – | 1460
353.15 K, 11000 kPa | – | 1465.1
353.15 K, 12000 kPa | – | 1469
353.15 K, 13000 kPa | – | 1471.8
353.15 K, 14000 kPa | – | 1476.9
353.15 K, 15000 kPa | – | 1480.8
353.15 K, 16000 kPa | – | 1484.7
353.15 K, 17000 kPa | – | 1488.6
353.15 K, 18000 kPa | – | 1492.5
353.15 K, 19000 kPa | – | 1496.4
353.15 K, 20000 kPa | – | 1500.2
